# Patent US11708283B2, “Metal-chelating compositions and their use in methods of removing or inhibiting barium scale” (CORNELL UNIVERSITY, priority 2018, dated 2023)
# Columns and labels:
# [1] = Thermodynamic stability constants of Ba^2+ complexes by pH-potentiometry; assay type: binding; conditions: for pBa (−log [M^2+]free): [M^2+] = 10^−6M, [L] = 10^−5M; for pBa (−log [M^2+]free) / log KBaH2L / log KBaHL / log KBaL / major species present at pH 7.4 in the presence of Ba^2+: 25° C.; for pBa (−log [M^2+]free) / log K′Ba (conditional stability constant) / log KBaH2L / log KBaHL / log KBaL: I = 0.1M KCl; for log K′Ba (conditional stability constant): pH 7.4, 25° C., calculated from protonation and stability constants; for log KBaH2L / log KBaHL / log KBaL: pH-potentiometry; for major species present at pH 7.4 in the presence of Ba^2+: speciation, [Ba^2+]tot=[L]tot=1.0 mM, I=0.1 M KCl
# Protocol: Potentiometric measurements were carried out using a titrator equipped with a combination electrode and an exchange unit with an automatic burette (10 mL). The titration vessel was fitted with a removable glass cell (˜70 mL) and was thermostated at 25° C. using a circulating water bath. CO2 was excluded from the vessel prior to and during the titrations using a small positive pressure of Ar that was passed through a solution of 30 wt % KOH. […] Hydrochloric acid (0.1 M) was standardized against freshly prepared KOH. […] Before every titration, the electrode was calibrated in terms of hydrogen ion concentration by titrating a solution of standardized HCl (5 mM) containing supporting electrolyte (95 mM) with standardized KOH (2 mL).
# ICP standards of calcium, strontium, and barium in dilute HNO3 were employed in the titrations. […] Stability constants were measured for the alkaline earth complexes of macropa^2− and macropaquin^2− by adding standardized KOH to a solution (20 mL) containing ligand (0.02 mmol), metal (0.02 mmol), 1 M KCl (1.9 mmol), and a portion of 0.1 M HCl sufficient to bring the total acid content (HCl+HNO3) to 0.1 mmol. The titration method employed either a 0.1 mV/min or 0.2 mV/min drift limit with a maximum wait time of 300 seconds between addition of base and measurement. […] These pH ranges reflect the portion of the titration curves in which metal binding is occurring. Using the protonation constants measured for each ligand, the stability constants (Equations 2-4, below) were calculated from the average of at least 3 independent titrations using appropriate software. Proton concentration was admitted as a refineable parameter. […] The errors given for the stability constants correspond to one standard deviation.
# The alkaline earth stability constants for macroquin-SO3^4− were determined using a system in which each ligand titration was paired with a ligand-metal titration. These pairwise titrations permitted the ligand concentration for the metal-ligand titrations to be known with reasonable certainty from the refinement of the ligand-only titrations. […] The same titration method was employed as described above for macropa^2− and macropaquin^2−. […] Stability constants were calculated as described above.
# Log conditional constants (log K′) of the alkaline earth complexes at pH 7.4 were calculated using the experimentally determined protonation and stability constants. These constants are expressed by the following equation:
# In the above equation, [(ML)′]=[ML]+[MHL]+[MH2L], and [HnL]=[L], [HL], [H2L] . . . [HnL].
# [2] = Thermodynamic stability constants of Ca^2+ complexes by pH-potentiometry; assay type: binding; conditions: I = 0.1M KCl; for pCa (−log [M^2+]free): [M^2+] = 10^−6M, [L] = 10^−5M, pH 7.4; for pCa (−log [M^2+]free) / log KCaL / log KCaHL: 25° C.; for log K′Ca (conditional stability constant): pH 7.4, 25° C., calculated from protonation and stability constants; for log KCaL / log KCaHL: pH-potentiometry
# Protocol: Potentiometric measurements were carried out using a titrator equipped with a combination electrode and an exchange unit with an automatic burette (10 mL). The titration vessel was fitted with a removable glass cell (˜70 mL) and was thermostated at 25° C. using a circulating water bath. CO2 was excluded from the vessel prior to and during the titrations using a small positive pressure of Ar that was passed through a solution of 30 wt % KOH. Carbonate-free KOH (˜0.1 M) was prepared by dissolving KOH pellets (semiconductor grade, 99.99% trace metals basis) in freshly boiled water (≥18 MΩ-cm) and was standardized by potentiometric titration against potassium hydrogen phthalate. Hydrochloric acid (0.1 M) was standardized against freshly prepared KOH. Titration solutions were maintained at a constant ionic strength of 0.1 M using KCl (≥99.5%) and were equilibrated for 15 minutes prior to the addition of titrant. Before every titration, the electrode was calibrated in terms of hydrogen ion concentration by titrating a solution of standardized HCl (5 mM) containing supporting electrolyte (95 mM) with standardized KOH (2 mL). Data within the pH ranges of 2.5-3.2 and 10.8-11.2 were analyzed using software to obtain the standard electrode potential (E0) and slope factor. Owing to the sharp rise in pH at the titration endpoint (pH 3.2-10.8), data obtained in this region are subject to significant error and were therefore excluded from the calibration analysis. A pKw value of 13.78 was taken from the literature (Baes, C. F.; Mesmer, R. E. The Hydrolysis of Cations; Wiley: New York, 1976).
# ICP standards of calcium, strontium, and barium in dilute HNO3 were employed in the titrations. The exact amount of HNO3 was determined by potentiometric titration of each metal solution (1 mL), diluted to a known volume with H2O, with standardized KOH to pH ˜7; under these conditions, no precipitation of metal hydroxide species was observed. The data were analyzed using a Gran plot (Gran, G. Analyst 1952, 77, 661-671). Stability constants were measured for the alkaline earth complexes of macropa^2− and macropaquin^2− by adding standardized KOH to a solution (20 mL) containing ligand (0.02 mmol), metal (0.02 mmol), 1 M KCl (1.9 mmol), and a portion of 0.1 M HCl sufficient to bring the total acid content (HCl+HNO3) to 0.1 mmol. The titration method employed either a 0.1 mV/min or 0.2 mV/min drift limit with a maximum wait time of 300 seconds between addition of base and measurement. […] Data points (˜30-90) obtained over the pH ranges of 2.5-10.5 (Ba-macropa), 2.8-10.5 (Sr-macropa), 4.0-10.5 (Ca-macropa), 2.7-11.3 (Ba-macropaquin), and 4.0-11.3 (Sr- and Ca-macropaquin) were included in the refinements. These pH ranges reflect the portion of the titration curves in which metal binding is occurring. Using the protonation constants measured for each ligand, the stability constants (Equations 2-4, below) were calculated from the average of at least 3 independent titrations using appropriate software. Proton concentration was admitted as a refineable parameter. Ligand (L) concentration was taken as the averaged value obtained from the refinements of ligand-only titrations. The errors given for the stability constants correspond to one standard deviation.
# The alkaline earth stability constants for macroquin-SO3^4− were determined using a system in which each ligand titration was paired with a ligand-metal titration. These pairwise titrations permitted the ligand concentration for the metal-ligand titrations to be known with reasonable certainty from the refinement of the ligand-only titrations. Immediately following a titration of the free ligand with HCl, metal ion (0.013 mmol) was added and the solution was equilibrated under Ar for 15 minutes before the addition of standardized KOH. The same titration method was employed as described above for macropa^2− and macropaquin^2−. […]
Structure (SMILES),pBa (−log [M^2+]free) ([1]; pH 7.4),log K′Ba (conditional stability constant) [1],pCa (−log [M^2+]free) [2],log K′Ca (conditional stability constant) [2],log KBaL lower than that for DOTA by [1] [log units],"Ba^2+ bound by ligand ([1]; pH 4.0, speciation) [%]","Ba^2+ complexed by ligand ([1]; pH 5.1, speciation) [%]",log K′Ba greater than those for DOTA and DTPA by ([1]; pH 7.4),selectivity for Ba^2+ over Ca^2+ (ratio of pM values) ([1]; pH 7.4) [fold],selectivity for Ba^2+ over Sr^2+ (ratio of pM values) ([1]; pH 7.4) [fold],log KBaH2L [1],log KBaHL [1],log KBaL [1],log KCaL [2],major species present at pH 7.4 in the presence of Ba^2+ [1],log KCaHL [2]
"O=C(O)CN1CCN(CC(=O)O)CCN(CC(=O)O)CCN(CC(=O)O)CC1 [DOTA, reference compound]",6.76,5.72,11.29,10.34,,,,,,,,,,,,
"O=C(O)c1cccc(CN2CCOCCOCCN(Cc3cccc(C(=O)O)n3)CCOCCOCC2)n1 [macropa, 6,6-((1,4,10,13-tetraoxa-7,16-diazacyclooctadecane-7,16-diyl)bis(methylene))dipicolinic acid]",11.69,10.74,6.54,5.42,0.64,90,99,5-6 orders of magnitude,1.79,1.17,2.49(7),3.76(2),11.11,5.79(1),,
"O=C(O)c1cccc(CN2CCOCCOCCN(Cc3ccc4cccc(O)c4n3)CCOCCOCC2)n1 [macropaquin, 6-((16-((8-hydroxyquinolin-2-yl)methyl)-1,4,10,13-tetraoxa-7,16-diazacyclooctadecan-7-yl)methyl)picolinic acid]",11.01,10.05,6.04,3.94,,,,,,,3.28(2),9.76(2),10.87,5.90(4),MHL,8.59(2)
"O=S(=O)(O)c1ccc(O)c2nc(CN3CCOCCOCCN(Cc4ccc5c(S(=O)(=O)O)ccc(O)c5n4)CCOCCOCC3)ccc12 [macroquin-SO3, 2,2′-((1,4,10,13-tetraoxa-7,16-diazacyclooctadecane-7,16-diyl)bis(methylene))bis(8-hydroxyquinoline-5-sulfonic acid)]",9.72,8.76,6.01,3.19,,,,,,,7.80(2),9.24(7),10.44,6.04(8),MH2L,8.60(4)
